The target in series [1] is T1, 5-hydroxytryptamine receptor 6 (Homo sapiens, UniProt P50406). Description: Displacement of [3H]-LSD from human 5HT6R expressed in CHO-K1 cell membranes incubated for 1 hr by scintillation counter method. Also noted: species or system Membrane.
Another series addresses Acetylcholinesterase (Electrophorus electricus, UniProt O42275). Description: Inhibition of electric eel AChE using acetylthiocholine iodide as substrate incubated for 5 mins followed by substrate addition and measured after 5 mins by spectrophotometric based Ellman's method. For orientation: Ellman's reagent forms a yellow product with free thiols.
In series [2] the target is T2, Amyloid-beta precursor protein (Homo sapiens, UniProt P05067). Description: Inhibition of HFIP-pretreated human recombinant amyloid beta (1 to 42) self aggregation at 10 uM incubated up to 48 hrs under shaking condition and measured every 3 min by Thioflavin T based fluorescence assay relative to control.
The target of the next series is Cholinesterase (Equus caballus, UniProt P81908).
Series [3] deals with T2, Amyloid-beta precursor protein. The series is described as follows: Inhibition of amyloid beta (1 to 42) (unknown origin) aggregation expressed in Escherichia coli BL21 (DE3) at 10 uM incubated for 24 hrs by microplate reader assay relative to control.
For the next series, the species on record is Homo sapiens. The series is described as follows: Inhibition of tau protein (unknown origin) expressed in Escherichia coli BL21 (DE3) at 10 uM incubated for 24 hrs by microplate reader assay relative to control.
Series [4] has as its target T2, Amyloid-beta precursor protein. Description: Inhibition of HFIP-pretreated human recombinant amyloid beta (1 to 42) self aggregation incubated up to 48 hrs under shaking condition and measured every 3 min by Thioflavin T based fluorescence assay.
The next series has as its target Cytochrome P450 3A4 (Homo sapiens, UniProt P08684). The series is described as follows: Inhibition of CYP3A4 (unknown origin) at <=10 uM. The format is ADME.
The target in a further series is Cytochrome P450 2D6 (Homo sapiens, UniProt P10635). The series is described as follows: Inhibition of CYP2D6 (unknown origin) at <=10 uM. The class given is ADME.
The subject of a further series is HepG2. Description: Cytotoxicity against human HepG2 cells assessed as cell reduction in cell viability incubated for 48 hrs by MTS assay. The class given is cell-based. The note with it: HepG2, 48 h. Background: Tetrazolium assays rely on reduction of a dye to a coloured formazan, in cell work by metabolically active cells.
Series [5] is described as follows: in vitro. As to conditions: mouse, liver microsomes. On the technique in general: Liver microsomes are a subcellular fraction often used to study metabolism.
In series [6] the target is T1, 5-hydroxytryptamine receptor 6. The series is described as follows: Antagonist activity at human 5HT6R expressed in 1321N1 cells assessed as inhibition of […] cAMP production measured after 30 mins by TR-FRET assay. The class given is functional, cell-based. The note with it: filed as antagonist.
Series [7] is described as follows: in vitro. As to conditions: PAMPA.
Description: Permeability coefficient of the compound in PBS buffer incubated for 5 hrs by PAMPA-based LC-MS analysis

The record followed here is ChEMBL document CHEMBL4842370, “Discovery of 1-(phenylsulfonyl)-1H-indole-based multifunctional ligands targeting cholinesterases and 5-HT6 receptor with anti-aggregation properties against amyloid-beta and tau” (Eur J Med Chem, 2021).

Usually Ki stands for a measure of affinity in units of concentration, obtained from inhibition or displacement. A low value points to a stronger hold on the target. One may read the IC50 as the concentration at which inhibition is half-maximal. One may read the inhibition as the change of the read-out against control, counted positive when it falls. One may read the Kb as the affinity of an antagonist, worked out from how it opposes an agonist. One may read the Papp as the rate of passage across a membrane or cell layer, normalised by area and donor concentration. A high value points to fast passage.

The source made the active and inactive calls. The calls are words filed in the database; no cut-off is given here.

Cholinesterase, sequence (P81908 whole entry): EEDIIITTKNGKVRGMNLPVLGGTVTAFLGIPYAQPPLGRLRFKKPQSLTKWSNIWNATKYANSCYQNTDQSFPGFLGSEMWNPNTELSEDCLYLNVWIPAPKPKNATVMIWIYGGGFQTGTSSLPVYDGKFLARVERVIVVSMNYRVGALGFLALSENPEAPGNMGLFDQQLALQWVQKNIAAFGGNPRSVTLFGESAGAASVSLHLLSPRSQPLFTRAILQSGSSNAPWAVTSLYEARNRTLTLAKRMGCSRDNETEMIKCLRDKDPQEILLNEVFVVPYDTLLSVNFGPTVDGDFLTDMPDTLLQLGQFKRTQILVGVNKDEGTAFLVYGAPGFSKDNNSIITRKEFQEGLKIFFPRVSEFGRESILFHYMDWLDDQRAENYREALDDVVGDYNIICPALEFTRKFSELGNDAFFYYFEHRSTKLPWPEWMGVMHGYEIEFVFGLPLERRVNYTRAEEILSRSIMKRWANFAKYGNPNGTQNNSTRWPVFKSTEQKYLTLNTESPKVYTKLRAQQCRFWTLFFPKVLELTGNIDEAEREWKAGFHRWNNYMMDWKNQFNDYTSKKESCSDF
T2 sequence (P05067 whole entry): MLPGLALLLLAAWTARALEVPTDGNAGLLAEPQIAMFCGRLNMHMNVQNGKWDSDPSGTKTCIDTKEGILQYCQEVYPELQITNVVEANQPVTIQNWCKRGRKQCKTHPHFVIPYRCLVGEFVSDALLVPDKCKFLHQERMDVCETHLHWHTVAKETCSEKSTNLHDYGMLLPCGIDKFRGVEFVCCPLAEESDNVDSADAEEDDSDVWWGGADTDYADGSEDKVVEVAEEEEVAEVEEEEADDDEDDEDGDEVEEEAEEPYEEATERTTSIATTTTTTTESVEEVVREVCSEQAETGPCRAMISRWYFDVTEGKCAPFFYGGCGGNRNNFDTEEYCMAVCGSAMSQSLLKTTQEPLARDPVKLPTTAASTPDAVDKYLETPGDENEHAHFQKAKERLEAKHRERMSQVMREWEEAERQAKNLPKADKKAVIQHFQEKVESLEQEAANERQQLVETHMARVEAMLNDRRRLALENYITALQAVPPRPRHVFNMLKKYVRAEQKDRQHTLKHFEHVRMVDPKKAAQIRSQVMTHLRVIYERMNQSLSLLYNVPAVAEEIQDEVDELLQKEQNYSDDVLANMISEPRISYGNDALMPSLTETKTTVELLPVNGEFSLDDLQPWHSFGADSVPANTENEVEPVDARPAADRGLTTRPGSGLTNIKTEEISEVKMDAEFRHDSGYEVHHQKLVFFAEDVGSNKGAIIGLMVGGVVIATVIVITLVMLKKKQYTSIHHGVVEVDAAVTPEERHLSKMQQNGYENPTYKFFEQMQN
T1 sequence (P50406 whole entry): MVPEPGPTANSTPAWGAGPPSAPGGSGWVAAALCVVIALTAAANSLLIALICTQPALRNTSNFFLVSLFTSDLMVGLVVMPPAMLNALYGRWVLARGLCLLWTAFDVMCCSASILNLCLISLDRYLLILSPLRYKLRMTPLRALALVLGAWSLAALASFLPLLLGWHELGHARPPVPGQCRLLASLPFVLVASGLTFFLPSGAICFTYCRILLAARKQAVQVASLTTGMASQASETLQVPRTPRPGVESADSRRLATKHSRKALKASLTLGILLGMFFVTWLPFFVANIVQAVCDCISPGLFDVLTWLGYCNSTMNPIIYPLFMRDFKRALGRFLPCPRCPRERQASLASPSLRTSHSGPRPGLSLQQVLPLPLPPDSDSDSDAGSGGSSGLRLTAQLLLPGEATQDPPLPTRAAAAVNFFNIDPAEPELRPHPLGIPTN
Acetylcholinesterase, sequence (O42275 whole entry): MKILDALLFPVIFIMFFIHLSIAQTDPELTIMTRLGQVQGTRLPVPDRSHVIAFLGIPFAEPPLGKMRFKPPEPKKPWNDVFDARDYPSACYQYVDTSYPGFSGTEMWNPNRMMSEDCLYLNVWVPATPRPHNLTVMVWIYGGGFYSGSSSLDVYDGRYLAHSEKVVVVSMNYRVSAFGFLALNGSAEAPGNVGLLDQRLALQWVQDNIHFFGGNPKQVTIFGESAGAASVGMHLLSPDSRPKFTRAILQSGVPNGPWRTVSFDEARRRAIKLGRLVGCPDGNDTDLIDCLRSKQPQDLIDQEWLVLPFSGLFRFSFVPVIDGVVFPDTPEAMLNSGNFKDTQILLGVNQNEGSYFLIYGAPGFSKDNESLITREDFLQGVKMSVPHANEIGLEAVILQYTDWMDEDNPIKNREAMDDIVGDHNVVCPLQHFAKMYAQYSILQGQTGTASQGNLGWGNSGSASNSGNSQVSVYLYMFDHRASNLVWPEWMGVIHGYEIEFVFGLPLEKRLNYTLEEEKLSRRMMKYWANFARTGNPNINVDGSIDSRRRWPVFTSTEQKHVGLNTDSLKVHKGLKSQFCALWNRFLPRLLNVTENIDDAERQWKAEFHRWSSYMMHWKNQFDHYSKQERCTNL
Cytochrome P450 2D6, sequence (P10635 whole entry): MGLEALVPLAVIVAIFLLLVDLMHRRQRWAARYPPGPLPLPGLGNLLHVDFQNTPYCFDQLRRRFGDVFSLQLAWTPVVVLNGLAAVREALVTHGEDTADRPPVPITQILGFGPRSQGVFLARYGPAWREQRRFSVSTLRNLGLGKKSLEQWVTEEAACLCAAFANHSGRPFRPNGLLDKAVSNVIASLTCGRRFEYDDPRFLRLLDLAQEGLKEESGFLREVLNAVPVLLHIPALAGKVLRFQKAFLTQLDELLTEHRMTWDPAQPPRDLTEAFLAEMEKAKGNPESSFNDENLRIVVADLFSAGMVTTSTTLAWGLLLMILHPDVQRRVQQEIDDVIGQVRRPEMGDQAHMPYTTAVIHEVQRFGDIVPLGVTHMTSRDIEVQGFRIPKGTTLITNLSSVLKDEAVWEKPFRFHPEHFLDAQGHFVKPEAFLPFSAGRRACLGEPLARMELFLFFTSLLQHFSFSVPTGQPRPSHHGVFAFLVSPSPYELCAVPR
Cytochrome P450 3A4, sequence (P08684 whole entry): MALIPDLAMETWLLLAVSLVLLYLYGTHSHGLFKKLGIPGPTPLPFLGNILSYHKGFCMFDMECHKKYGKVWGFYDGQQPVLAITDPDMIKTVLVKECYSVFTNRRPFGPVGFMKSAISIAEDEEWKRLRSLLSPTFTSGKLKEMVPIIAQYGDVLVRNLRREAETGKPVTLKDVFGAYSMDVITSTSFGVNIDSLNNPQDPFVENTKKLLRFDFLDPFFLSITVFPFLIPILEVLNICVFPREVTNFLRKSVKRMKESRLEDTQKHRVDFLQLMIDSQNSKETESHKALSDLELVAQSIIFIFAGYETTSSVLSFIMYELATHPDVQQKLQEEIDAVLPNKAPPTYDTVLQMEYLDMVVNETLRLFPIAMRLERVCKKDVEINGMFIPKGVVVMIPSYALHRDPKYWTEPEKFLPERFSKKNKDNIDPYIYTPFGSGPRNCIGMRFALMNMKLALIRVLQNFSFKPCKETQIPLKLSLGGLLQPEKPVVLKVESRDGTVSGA

Compound `O=S(=O)(c1ccccc1)n1ccc2c(OCCNCCCNc3c4c(nc5ccccc35)CCCC4)cccc21` came in with a Ki in [1] of 0.01 µM. The IC50 was 0.0209 µM at Acetylcholinesterase (read-out: IC50) and 0.0188 µM on Cholinesterase. For the same compound, the inhibition in [2] amounted to 61.1%.

Compound `Cc1cccc(CNCCNCCOc2cccc3c2ccn3S(=O)(=O)c2ccccc2)c1` yielded an inhibition constant Ki in series [1] of 0.002 µM. In addition, the IC50 worked out at 4470 µM at Acetylcholinesterase (read-out: IC50) and 1.07 µM against Cholinesterase. Besides, the values for the inhibition (in series [2]; in series [3]; in the series listed under Homo sapiens) were 57.4%, 48.5% and 58.8%, respectively.

`O=S(=O)(c1ccccc1)n1ccc2c(OCCNCCCCCNCc3ccccc3)cccc21` registered an inhibition constant (Ki) in series [1] of 0.012 µM. Further, the IC50 result on Acetylcholinesterase is “Not Active”; against Cholinesterase it was 0.394 µM. Further, the figures for the inhibition (in series [2]; in series [3]; in the series listed under Homo sapiens) were 62.5%, 36.5% and 51.7%, respectively.

For the compound `O=S(=O)(c1ccccc1)n1ccc2c(OCCNCCNCc3ccc(Cl)cc3)cccc21`, in series [1], the affinity, expressed as Ki, was 0.001 µM. The IC50 entry was “Not Active” at Acetylcholinesterase and 1.99 µM on Cholinesterase. Besides, the inhibition amounted to 60.6% in series [2], 31.9% in series [3] and 58.2% in the series listed under Homo sapiens.

In turn, `O=S(=O)(c1ccccc1)n1ccc2c(OCCNCCNc3c4c(nc5ccccc35)CCCC4)cccc21` gave an inhibition constant Ki in series [1] of 0.013 µM. In addition, the IC50 at Acetylcholinesterase (read-out: IC50) worked out at 0.00842 µM; in series [4] it was 1.1 µM; in the series on HepG2, 79.6 µM; against Cholinesterase it was 0.0244 µM. The inhibition in series [2] is 74.8%. Moreover, the “inhibition (INH)” value against Cytochrome P450 3A4 and against Cytochrome P450 2D6 was “Not Active” each time. Besides, the metabolised at 2 h in the series “in vitro [5]” stood at 72%.

In series [1], `O=S(=O)(c1ccccc1)n1ccc2c(OCCNCCCNCc3ccccc3)cccc21` had a Ki of 0.008 µM. In addition, the IC50 entry against Acetylcholinesterase was “Not Active”; on Cholinesterase, 0.701 µM. Also, in [2], the inhibition worked out at 53.2%.

Consider `O=S(=O)(c1ccccc1)n1ccc2c(OCCNCCNCc3ccccc3Cl)cccc21`, for which the inhibition constant (Ki) in [1] was 0.003 µM. Further, in series [6], the Kb is 0.058 µM. In addition, the results for the half-maximal inhibitory concentration (IC50) at Acetylcholinesterase (read-out: IC50) and against Cholinesterase were 4.24 µM and 0.586 µM, respectively. The results for the inhibition (in [2]; in series [3]; in the series listed under Homo sapiens) were 57%, 27.5% and 53.5%, respectively.

For the compound `O=S(=O)(c1ccccc1)n1ccc2c(OCCNCCNCc3ccccc3)cccc21`, in series [1], the affinity, expressed as Ki, was 0.003 µM. Moreover, the antagonist equilibrium constant (Kb) in series [6] came out at 0.009 µM. The 50% inhibitory concentration (IC50) at Acetylcholinesterase (read-out: IC50) came out at 2.87 µM; at Cholinesterase, 0.528 µM. The inhibition in [2] was determined as 55%; in [3], 26.9%; in the series listed under Homo sapiens, 58.1%.

On to `CCN(C)C(=O)Oc1cccc([C@H](C)N(C)C)c1`, for which the inhibition in series [2] was 86.6%.

Compound `O=S(=O)(c1ccccc1)n1ccc2c(OCCNCCCCNCc3ccccc3)cccc21` came in with a Ki in [1] of 0.008 µM. In addition, the half-inhibitory concentration (IC50) entry at Acetylcholinesterase was “Not Active”; against Cholinesterase, 0.887 µM. Besides, the inhibition in series [2] was determined as 41.8%.

Regarding `O=S(=O)(c1ccccc1)n1ccc2c(OCCNCCNCc3cc(Cl)cc(Cl)c3)cccc21`, in series [1], affinity was put at a Ki of 0.011 µM. Moreover, the results for the concentration for half-maximal inhibition (IC50) result at Acetylcholinesterase and against Cholinesterase were “Not Active” and 1.66 µM, respectively. In addition, the inhibition in series [2] amounted to 57.2%; in series [3], 40.9%; in the series filed under Homo sapiens, 62.3%.

As for `O=S(=O)(c1ccccc1)n1ccc2c(OCCNCCCCCCNc3c4c(nc5ccccc35)CCCC4)cccc21`, the Ki in series [1] was 0.0086 µM. In addition, the figures for the IC50 on Acetylcholinesterase (read-out: IC50) and against Cholinesterase were 0.0725 µM and 0.00407 µM, respectively. In series [2], the inhibition was determined as 69.2%.

On to `O=[N+]([O-])c1ccc(CNCCNCCOc2cccc3c2ccn3S(=O)(=O)c2ccccc2)cc1`, for which, in series [1], the inhibition constant (Ki) was 0.002 µM. Moreover, the results for the half-maximal inhibitory concentration (IC50) result against Acetylcholinesterase and on Cholinesterase were “Not Active” and 4.26 µM, respectively. In addition, the inhibition in series [2] is 57.7%; in [3], 31.6%; in the series filed under Homo sapiens, 62.3%.

On to `O=S(=O)(c1ccccc1)n1ccc2c(OCCNCCCCCNc3c4c(nc5ccccc35)CCCC4)cccc21`, for which the affinity in series [1] corresponds to a Ki of 0.007 µM. For the same compound, the results for the concentration for half-maximal inhibition (IC50) at Acetylcholinesterase (read-out: IC50) and against Cholinesterase were 0.303 µM and 0.00217 µM, respectively. Further, the inhibition in [2] came to 73.2%.

`O=S(=O)(c1ccccc1)n1ccc2c(OCCNCCNCc3ccc(F)cc3)cccc21` registered an inhibition constant Ki in series [1] of 0.0001 µM. Moreover, the IC50 at Acetylcholinesterase (read-out: IC50) is 6210 µM; at Cholinesterase it was 1.3 µM. Besides, the inhibition in series [2] turned out to be 73.4%; in series [3], 23.7%; in the series listed under Homo sapiens, 58%.

In turn, `CCN(C)C(=O)Oc1cccc(CNCCNCCOc2cccc3c2ccn3S(=O)(=O)c2ccccc2)c1` registered a Ki in [1] of 0.015 µM. In series [6], the Kb came out at 0.048 µM. Further, the IC50 entry against Acetylcholinesterase was “Not Active”; in series [4], 1.38 µM; in the series on HepG2, 21.1 µM; on Cholinesterase it was 0.454 µM. The inhibition in series [2] was 68.1%; in series [3], 77.5%; in the series listed under Homo sapiens it was 68.7%. Besides, the “inhibition (INH)” value against Cytochrome P450 3A4 and on Cytochrome P450 2D6 was “Not Active” in each case. Further, the apparent permeability coefficient (Papp) at 5 h in the series “in vitro [7]” came to 1.27 ×10⁻⁶ cm/s. This compound yielded a metabolised at 2 h in “in vitro [5]” of 40%.

Consider `O=S(=O)(c1ccccc1)n1ccc2c(OCCNCCNCc3cccc(Cl)c3)cccc21`, for which the inhibition constant Ki in [1] turned out to be 0.002 µM. The IC50 stood at 4.84 µM at Acetylcholinesterase (read-out: IC50) and 1.07 µM against Cholinesterase. Further, the figures for the inhibition (in [2]; in [3]; in the series listed under Homo sapiens) were 64.3%, 25.7% and 57.5%, respectively.

`O=S(=O)(c1ccccc1)n1ccc2c(OCCNCCCCNc3c4c(nc5ccccc35)CCCC4)cccc21` had a Ki in [1] of 0.0035 µM. Also, in series [6], the Kb came out at 0.01 µM. The half-maximal inhibitory concentration (IC50) was found to be 0.0575 µM on Acetylcholinesterase (read-out: IC50) and 0.00939 µM on Cholinesterase. The inhibition in series [2] is 77.4%.

Compound `O=S(=O)(c1ccccc1)n1ccc2c(OCCNCCNCc3cccc(C(F)(F)F)c3)cccc21` registered an inhibition constant (Ki) in series [1] of 0.0017 µM. In addition, the Kb in series [6] came out at 0.007 µM. The IC50 entry was “Not Active” at Acetylcholinesterase and 2.12 µM against Cholinesterase. In series [2], the inhibition entry was “inactive”. Besides, the results for the inhibition (in series [3]; in the series filed under Homo sapiens) were 37.1% and 79.4%, respectively.

As to `COc1ccc(CNCCNCCOc2cccc3c2ccn3S(=O)(=O)c2ccccc2)cc1`, the Ki in [1] was found to be 0.0035 µM. Besides, the IC50 result is “Not Active” against Acetylcholinesterase and 2.07 µM against Cholinesterase. Moreover, the figures for the inhibition (in [2]; in [3]; in the series filed under Homo sapiens) were 63.8%, 41.4% and 64%, respectively.
